Tested on: Chlorella fusca (CF)
Experiment: Algistatic finish (SM 023) of pure acrylate house paint
Format: cell-based
Conditions: without and with stress due to leaching; active compound concentration of 0.2% by weight based on house paint and test substance
Method: In separate batches, the test concentrations of the active compounds/products were incorporated into the house paint, and the fungicidal and/or algistatic finish was determined using the stated test methods.
Incorporation and testing were carried out according to the methods SM 022 and SM 023 below.
This laboratory method was employed for determining the resistance of house coatings to colonization by algae. For this method, house coatings on standardized paper are used as test substrate and Chlorella fusca is used as test alga. It is furthermore possible to use pure cultures of other algae species of practical relevance.
The experiments were carried out in Petri dishes on agar nutrient media.
50 g of the material to be finished were, in separate batches, mixed with various concentrations of the algicide to be examined and homogenized for 3-5 min using a basket stirrer.
Paper carrier materials having the dimensions 90×270 mm (Schleicher & Schüll No. 2589 B/X 24078) were coated with the test material. The paint and/or render samples were coated to a wet-layer thickness of 250 μm by knife coating. […] In the case of renders, the layer thickness depends, as in practice, on the particle size. The coated carrier materials, hereinbelow referred to as test bodies, were subsequently dried in a horizontal position for five days.
[…] The cross section of the container for the watering in the direction of flow was 1000±500 cm^2.
From the pretreated test bodies, three sample bodies having a diameter of 5 cm were punched out and sterilized in a Co^60 source using at least 10 kGy.
Aseptically, the samples were placed onto the algae nutrient media, and the centre of the sample was inoculated with 5 ml of each algae suspension.
The mixture of the algae suspensions was spread on the surface using a Drigalski spatula or an offset sterile glass rod.
During the growth phase at 22±2° C., the coated samples in the Petri dishes were irradiated with light of an intensity of about 1000 Lux (customary fluorescent tubes, type D 67 daylight). A cycle of in each case 12 hours of irradiation and 12 hours of storage in the dark was used.
The colonization of the samples by algae was examined and evaluated after two weeks. Evaluation was carried out visually. The evaluation of the samples was based on the following evaluation scale:
No growth of algae on the test bodies
Formation of an inhibitory zone or growth of algae on the nutrient medium up to the edge of the test bodies
Visible colonization of the test body by algae

COC(=O)Nc1nc2ccccc2[nH]1 [carbendazim, Methyl 1H-benzimidazol-2-ylcarbamate]
Algicidal action (in words): no algicidal action
